Columns and labels:
TGF-beta receptor type-1 = biological target: T1, TGF-beta receptor type-1 (Homo sapiens, UniProt P36897); assay: Inhibition of TGFBR1 in human biochemical assay assessed as apparent inhibition constant; conditions: read-out: Ki(app)
T1 sequence (P36897 whole entry): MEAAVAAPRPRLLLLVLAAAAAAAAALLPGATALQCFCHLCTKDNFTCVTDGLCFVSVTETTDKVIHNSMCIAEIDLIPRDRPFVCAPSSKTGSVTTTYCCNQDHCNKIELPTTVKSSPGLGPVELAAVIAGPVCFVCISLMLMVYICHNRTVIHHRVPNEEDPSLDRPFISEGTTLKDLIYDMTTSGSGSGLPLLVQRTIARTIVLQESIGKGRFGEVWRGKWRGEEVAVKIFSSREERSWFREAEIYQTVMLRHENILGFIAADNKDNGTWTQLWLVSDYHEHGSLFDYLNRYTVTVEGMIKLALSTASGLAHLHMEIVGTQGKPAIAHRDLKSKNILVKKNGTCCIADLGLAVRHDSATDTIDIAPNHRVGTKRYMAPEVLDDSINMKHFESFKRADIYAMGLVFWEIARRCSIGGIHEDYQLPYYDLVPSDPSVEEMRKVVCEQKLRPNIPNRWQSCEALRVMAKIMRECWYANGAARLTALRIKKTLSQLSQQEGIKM

[1] = Half life in mouse liver microsomes in presence of NADPH; format: ADME, Microsome
Cytochrome P450 1A2 = biological target: T2, Cytochrome P450 1A2 (Homo sapiens, UniProt P05177); assay: Inhibition of recombinant CYP1A2 (unknown origin); format: ADME
T2 sequence (P05177 whole entry): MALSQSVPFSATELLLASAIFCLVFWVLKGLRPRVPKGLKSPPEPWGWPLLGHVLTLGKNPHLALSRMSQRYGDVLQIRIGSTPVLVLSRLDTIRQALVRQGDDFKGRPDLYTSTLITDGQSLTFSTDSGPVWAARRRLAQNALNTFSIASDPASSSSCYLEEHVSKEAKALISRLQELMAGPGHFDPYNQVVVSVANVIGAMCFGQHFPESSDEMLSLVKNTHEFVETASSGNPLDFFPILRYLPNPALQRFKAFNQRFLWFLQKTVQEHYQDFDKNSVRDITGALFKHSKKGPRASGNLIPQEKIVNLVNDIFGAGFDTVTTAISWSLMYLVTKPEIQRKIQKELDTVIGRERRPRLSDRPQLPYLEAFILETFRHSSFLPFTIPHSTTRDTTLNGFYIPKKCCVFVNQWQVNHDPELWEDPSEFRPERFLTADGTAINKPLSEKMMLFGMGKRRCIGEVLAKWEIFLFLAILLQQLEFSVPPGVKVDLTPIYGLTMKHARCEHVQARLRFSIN

Ki (TGF-beta receptor type-1): 0.8 nM | half-life [1]: 28 min | IC50 (Cytochrome P450 1A2): > 20000 nM
SMILES: N#Cc1cnc2ccc(-c3c(-c4ccc(F)c(Cl)c4)ncn3CCO)nn12

From ChEMBL document CHEMBL4334552, “Discovery of BMS-986260, a Potent, Selective, and Orally Bioavailable TGFβR1 Inhibitor as an Immuno-oncology Agent” (ACS Med Chem Lett, 2020)
